Drawing on PubChem BioAssay (NCI), this text covers TGI and GI50 for 20 molecules.

Some test systems named below: HS 578T breast; RPMI-8226 leukemia; OVCAR-5 ovarian; MOLT-4 leukemia; LOX IMVI melanoma; CCRF-CEM leukemia; SN12C renal.
Common to all, as to assay: growth of human tumour cells (NCI), 48 h

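Step 1: Grow cells in 96-well plates. Step 2: Expose to compound for 48 hours at 5 concentrations. Step 3: Interpolate endpoints linearly; if unreached, use highest concentration. Abbreviation: GI50, concentration required for 50% inhibition of growth. The concentration for full growth arrest is given as TGI.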

Regarding `CN(C)c1ccc(C=C2C(=O)NC(=S)NC2=O)c2ccccc12`, the TGI was 71.8 µM in the assay on HS 578T breast; above 100 µM in the assay on RPMI-8226 leukemia; above 100 µM in the assay with OVCAR-5 ovarian; above 100 µM in the assay with MOLT-4 leukemia; 77 µM with LOX IMVI melanoma; above 100 µM in the assay on CCRF-CEM leukemia. Besides, the TGI with SN12C renal was above 100 µM.

On to `CC[C@@]1(O)C(=O)OCc2c1cc1n(c2=O)Cc2c-1nc1ccccc1c2/C=N/NC(=O)c1ccc(N)cc1`, for which the TGI was above 100 µM in the assay with HS 578T breast; above 100 µM in the assay with RPMI-8226 leukemia; above 100 µM in the assay on OVCAR-5 ovarian; 0.287 µM in the assay on MOLT-4 leukemia; 0.5 µM with LOX IMVI melanoma; 16.2 µM in the assay with SN12C renal.

Turning to `Cc1cc(S(=O)(=O)/N=C(\[N-]S(=O)(=O)c2cc(Cl)sc2Cl)[n+]2ccc(N(C)C)cc2)c(S)cc1Cl`, the TGI in the assay on HS 578T breast, with RPMI-8226 leukemia, in the assay on OVCAR-5 ovarian, in the assay on MOLT-4 leukemia, with LOX IMVI melanoma and in the assay with CCRF-CEM leukemia was above 100 µM throughout.

`Cn1c(N)nc(-c2ccc(Cl)cc2)c1SSc1c(-c2ccc(Cl)cc2)nc(N)n1C`: the TGI in the assay with HS 578T breast is above 100 µM; with RPMI-8226 leukemia, 3.3 µM; in the assay on OVCAR-5 ovarian it was 3.26 µM; in the assay on MOLT-4 leukemia, above 100 µM; in the assay on CCRF-CEM leukemia, 5.05 µM.

On to `CC(=O)CC1=C(OC(C)C)C2(OCCO2)C1O` (configuration not stated), for which the TGI in the assay with HS 578T breast, with OVCAR-5 ovarian, in the assay with MOLT-4 leukemia, in the assay with LOX IMVI melanoma, with CCRF-CEM leukemia and with SN12C renal was above 100 µM throughout.

For `ON=C(CC(O)(C(F)(F)Cl)C(F)(F)Cl)CC(O)(C(F)(F)Cl)C(F)(F)Cl`, the TGI in the assay with HS 578T breast, with RPMI-8226 leukemia, in the assay on MOLT-4 leukemia, in the assay with LOX IMVI melanoma, with CCRF-CEM leukemia and in the assay on SN12C renal was above 10 µM in each case.

For the molecule `Cc1ccc(N/C(SCc2ccccc2)=C(\C(Cl)=C(Cl)Cl)[N+](=O)[O-])c(C)c1`, the TGI with HS 578T breast was 68.4 µM; in the assay on RPMI-8226 leukemia it was above 100 µM; with OVCAR-5 ovarian, 89.8 µM; in the assay on MOLT-4 leukemia it was above 100 µM; with CCRF-CEM leukemia it was above 100 µM; in the assay with SN12C renal, 43.8 µM.

Regarding `COc1ccc(-c2oc3c(OC)c(OC)cc(O)c3c(=O)c2OC)cc1`, the TGI in the assay on HS 578T breast, with OVCAR-5 ovarian, in the assay on MOLT-4 leukemia, in the assay on LOX IMVI melanoma, in the assay with CCRF-CEM leukemia and in the assay with SN12C renal was above 100 µM each time.

With `COc1cc(OC)c2[nH]c3c(O)c(-c4c(C)cc5c([nH]c6c(OC)cc(OC)cc65)c4O)c(C)cc3c2c1`, the TGI in the assay on HS 578T breast came to 20.2 µM; in the assay with RPMI-8226 leukemia it was 23.7 µM; in the assay on OVCAR-5 ovarian, 16.2 µM; with MOLT-4 leukemia it was 21.9 µM; in the assay with LOX IMVI melanoma, 14.6 µM. Besides, the GI50 is 10.5 µM with RPMI-8226 leukemia, 9.03 µM with OVCAR-5 ovarian and 8.59 µM in the assay on MOLT-4 leukemia.

For `c1ccc(CSC2(SCc3ccccc3)CCCCC2)cc1`, the TGI in the assay on HS 578T breast, in the assay on RPMI-8226 leukemia, with MOLT-4 leukemia, in the assay on LOX IMVI melanoma, in the assay on CCRF-CEM leukemia and in the assay on SN12C renal was above 10 µM each time.

With `CC(=O)OC(C)(C)CCC(=O)[C@](C)(O)[C@H]1[C@H](O)C[C@@]2(C)[C@@H]3CCc4c(cc(OC5OC(CO)C(O)C(O)C5O)c(O)c4C)C3(C)C(=O)C[C@]12C` (some centres not stated), the TGI in the assay with OVCAR-5 ovarian, with MOLT-4 leukemia, in the assay with LOX IMVI melanoma, with CCRF-CEM leukemia and in the assay with SN12C renal was above 100 µM in each case.

As to `O=C(NNC(=O)c1csc(NC(=S)NC2CCCCC2)n1)c1ccccc1`, the TGI amounted to 69.9 µM with RPMI-8226 leukemia; 76.3 µM with OVCAR-5 ovarian; 44.9 µM in the assay on MOLT-4 leukemia; 22 µM in the assay on LOX IMVI melanoma; 68.6 µM in the assay on CCRF-CEM leukemia; 22.5 µM in the assay with SN12C renal.

As for `CCOC(=O)c1nc2ccc(C(F)(F)F)cc2nc1Oc1ccc(C(=O)OC)cc1`, the TGI in the assay with HS 578T breast, with RPMI-8226 leukemia, with MOLT-4 leukemia, in the assay on LOX IMVI melanoma and with CCRF-CEM leukemia was above 100 µM in each case.

As for `Cc1cnc2[nH]c(-c3ccc4ccccc4c3)cc(=O)c2c1`, the TGI with HS 578T breast, in the assay on RPMI-8226 leukemia, in the assay with OVCAR-5 ovarian, with MOLT-4 leukemia, in the assay on LOX IMVI melanoma and with SN12C renal was above 100 µM in each case.

On to `Cc1cccc(N/C(Sc2ccccc2)=C(/C(Cl)=C(Cl)Cl)[N+](=O)[O-])c1`, for which the TGI in the assay with RPMI-8226 leukemia is above 100 µM; in the assay on OVCAR-5 ovarian it was 40.8 µM; with MOLT-4 leukemia, above 100 µM; with CCRF-CEM leukemia, above 100 µM; in the assay with SN12C renal, 35.1 µM.

Regarding `CN1CC2CN(Cc3ccccc3)CCN2c2cccnc21` (configuration not stated), the TGI in the assay on HS 578T breast is above 100 µM; in the assay with RPMI-8226 leukemia, above 100 µM; in the assay with OVCAR-5 ovarian, above 100 µM; with MOLT-4 leukemia, above 100 µM; with LOX IMVI melanoma, 49.4 µM; in the assay with CCRF-CEM leukemia, above 100 µM.

As to `CCOC1CC(C)N(C(=O)c2ccccc2)O1` (configuration not stated), the TGI in the assay on HS 578T breast, in the assay with OVCAR-5 ovarian, with MOLT-4 leukemia, in the assay with CCRF-CEM leukemia and with SN12C renal was above 100 µM throughout.

With `CSc1nc2c(c(=O)[nH]1)N=C(c1ccccc1)CC(c1ccccc1)N2` (configuration not stated), the TGI in the assay on RPMI-8226 leukemia was 71 µM; with OVCAR-5 ovarian it was above 100 µM; in the assay with MOLT-4 leukemia, 59.6 µM; with LOX IMVI melanoma, above 100 µM; in the assay on CCRF-CEM leukemia, above 100 µM; in the assay with SN12C renal it was 56.6 µM.

Turning to `N#Cc1c(-c2ccccc2)c(CN2CCCCC2)c(=O)n2c1[nH]c1ccccc12`, the TGI in the assay with OVCAR-5 ovarian is above 100 µM; in the assay on MOLT-4 leukemia, 45.4 µM; in the assay with LOX IMVI melanoma, 50.8 µM; in the assay on CCRF-CEM leukemia, above 100 µM; in the assay with SN12C renal, above 100 µM.

Turning to `O=C(c1cc2c(c3ccccc13)NC1(CCCCC1)N=C2C(F)(F)F)C(F)(F)F`, the TGI in the assay with HS 578T breast turned out to be 29.3 µM; in the assay with OVCAR-5 ovarian, 21.5 µM; with MOLT-4 leukemia, 14.5 µM; in the assay with LOX IMVI melanoma, 12.1 µM; in the assay on CCRF-CEM leukemia, 13.1 µM; in the assay with SN12C renal, 13.2 µM.
